Values joined by “and” are separate entries in the source; they are usually repeats but may differ in a detail not shown here. Identical values can stand only once. Inconclusive results and toxic doses are left out.
System: BDF1 mice, P388 leukemia ip, median survival T/C
Assay: NCI In Vivo Anticancer Drug Screen. Data for tumor model P388 Leukemia (intraperitoneal) in B6D2F1 (BDF1) mice
Conditions: endpoint: median survival time, higher = longer survival
Procedure, shortened: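 In tumour-bearing mice, survival after compound treatment is set against the vehicle group and given as a quotient.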

[1] = dose: 25.0 mg/kg/injection, schedule: Q04DX003 (ip), vehicle: saline
[2] = dose: 50.0 mg/kg/injection, schedule: Q04DX003 (ip), vehicle: saline
[3] = dose: 50.0 mg/kg/injection, schedule: Q01DX009 (ip), vehicle: saline with Tween-80
[4] = dose: 100.0 mg/kg/injection, schedule: Q01DX009 (ip), vehicle: saline with Tween-80
[5] = dose: 100.0 mg/kg/injection, schedule: Q01DX001 (ip), vehicle: saline with Tween-80
[6] = dose: 200.0 mg/kg/injection, schedule: Q01DX001 (ip), vehicle: saline with Tween-80
[7] = dose: 400.0 mg/kg/injection, schedule: Q01DX001 (ip), vehicle: saline with Tween-80
[8] = dose: 3.13 mg/kg/injection, schedule: Q01DX009 (ip), vehicle: saline with Tween-80
[9] = dose: 6.25 mg/kg/injection, schedule: Q01DX009 (ip), vehicle: saline with Tween-80
[10] = dose: 100.0 mg/kg/injection, schedule: Q04DX003 (ip), vehicle: saline with Tween-80
[11] = dose: 200.0 mg/kg/injection, schedule: Q04DX003 (ip), vehicle: saline with Tween-80
[12] = dose: 400.0 mg/kg/injection, schedule: Q04DX003 (ip), vehicle: saline with Tween-80
[13] = dose: 100.0 mg/kg/injection, schedule: Q04DX003 (ip), vehicle: Klucel (hydroxypropylcellulose) (HPC)
[14] = dose: 200.0 mg/kg/injection, schedule: Q04DX003 (ip), vehicle: Klucel (hydroxypropylcellulose) (HPC)
[15] = dose: 50.0 mg/kg/injection, schedule: Q04DX003 (ip), vehicle: Klucel (hydroxypropylcellulose) (HPC)
[16] = dose: 100.0 mg/kg/injection, schedule: Q01DX009 (ip), vehicle: Klucel (hydroxypropylcellulose) (HPC)
[17] = dose: 200.0 mg/kg/injection, schedule: Q01DX009 (ip), vehicle: Klucel (hydroxypropylcellulose) (HPC)
[18] = dose: 100.0 mg/kg/injection, schedule: Q04DX003 (ip), vehicle: other
[19] = dose: 400.0 mg/kg/injection, schedule: Q04DX003 (ip), vehicle: other
[20] = dose: 200.0 mg/kg/injection, schedule: Q01DX009 (ip), vehicle: saline with Tween-80
[21] = dose: 100.0 mg/kg/injection, schedule: Q01DX009 (ip), vehicle: saline
[22] = dose: 100.0 mg/kg/injection, schedule: Q04DX003 (ip), vehicle: saline

With `CCOC(=O)NP(=O)(N1CC1)N1CC1` the T/C (dose: 2.1 mg/kg/injection, schedule: Q04DX003 (ip), vehicle: saline) was 105 % of control, the T/C (dose: 3.1 mg/kg/injection, schedule: Q04DX003 (ip), vehicle: saline) was 110 % of control and the T/C (dose: 11.0 mg/kg/injection, schedule: Q04DX003 (ip), vehicle: saline) was 272 % of control. For the same compound, the T/C [1] was 225 % of control, the T/C (dose: 33.0 mg/kg/injection, schedule: Q04DX003 (ip), vehicle: saline) was 333 % of control and 220 % of control and the T/C [2] was 300 % of control and 172 % of control and 195 % of control. The T/C (dose: 75.0 mg/kg/injection, schedule: Q04DX003 (ip), vehicle: saline) was 88 % of control and 95 % of control.
`CN(C)c1ccc(/C=C/c2ccnc3c(-c4ccccc4)cccc23)cc1` was tested, and the T/C [3] was 89 % of control and the T/C [4] was 91 % of control.
For `FC(F)(F)C(Cl)(Cc1ccc2ccccc2n1)C(F)(F)F`, the T/C [5] was 100 % of control, the T/C [6] was 100 % of control and the T/C [7] was 104 % of control.
In the case of `O=C1N/C(=N\c2nc3ccccc3s2)c2ccccc21`, the T/C [8] is reported as 90 % of control, the T/C [9] is reported as 92 % of control and the T/C (dose: 12.5 mg/kg/injection, schedule: Q01DX009 (ip), vehicle: saline with Tween-80) is reported as 92 % of control.
With `Cc1c(C)c2c(c(C)c1O)CCC(C)(CCCC(C)CCCC(C)CCCC(C)C)O2` (centres undefined) the T/C (dose: 30.0 IU/animal/injection, schedule: Q04DX003 (ip), vehicle: olive oil, sesame oil, peanut oil) was 100 % of control and the T/C (dose: 85.0 IU/animal/injection, schedule: Q04DX003 (ip), vehicle: olive oil, sesame oil, peanut oil) was 100 % of control.
For `CCCCNC(C)(C)C(SSS(=O)(=O)O)c1ccc(Cl)cc1` (centres undefined), the T/C [10] was 100 % of control, the T/C [11] was 100 % of control and the T/C [12] was 116 % of control.
With `O=C(NNC1CCCCC1)c1ccccc1` the T/C (dose: 25.0 mg/kg/injection, schedule: Q01DX009 (ip), vehicle: saline with Tween-80) was 95 % of control.
`Cc1cc(NC(=O)c2ccc(Cl)cc2)ccc1Cl` was tested, and the T/C [5] was 100 % of control, the T/C [6] was 86 % of control and the T/C [7] was 95 % of control.
With `COc1cc(OC)c(N=Cc2ccc3c(c2)OCO3)cc1Cl` the T/C [13] was 100 % of control and the T/C [14] was 100 % of control.
`Cc1c(C)c(Br)c(C)c(-c2c(O)c(Br)c(-c3c(C)c(C)c(C)c(Br)c3C)c(O)c2Br)c1C` was tested, and the T/C [10] was 100 % of control, the T/C [11] was 90 % of control and the T/C [12] was 90 % of control.
In the case of `CCOC(=O)/C=C(\C)Sc1cc(O)c2ccccc2c1O`, the T/C [8] is reported as 102 % of control and the T/C [9] is reported as 103 % of control.
In the case of `O=C(O)CCSc1ccccc1`, the T/C (dose: 50.0 mg/kg/injection, schedule: Q01DX009 (ip), vehicle: Klucel (hydroxypropylcellulose) (HPC)) is reported as 90 % of control, the T/C [15] is reported as 95 % of control and the T/C [16] is reported as 100 % of control. The T/C [13] was 100 % of control, the T/C [17] was 109 % of control and the T/C [14] was 100 % of control.
In the case of `CCCCCCCCCC(=O)CCCCCCC`, the T/C (dose: 50.0 mg/kg/injection, schedule: Q01DX009 (ip), vehicle: other) is reported as 100 % of control, the T/C (dose: 100.0 mg/kg/injection, schedule: Q01DX009 (ip), vehicle: other) is reported as 100 % of control and the T/C [18] is reported as 100 % of control. For the same compound, the T/C (dose: 118.0 mg/kg/injection, schedule: Q04DX003 (ip), vehicle: other) was 104 % of control, the T/C (dose: 178.0 mg/kg/injection, schedule: Q04DX003 (ip), vehicle: other) was 109 % of control and 118 % of control and the T/C (dose: 200.0 mg/kg/injection, schedule: Q01DX009 (ip), vehicle: other) was 104 % of control. For the same compound, the T/C (dose: 266.0 mg/kg/injection, schedule: Q04DX003 (ip), vehicle: other) was 95 % of control, the T/C (dose: 400.0 mg/kg/injection, schedule: Q01DX009 (ip), vehicle: other) was 95 % of control and the T/C [19] was 109 % of control and 118 % of control.
With `CC(=O)C1=C(O)C2C3c4c[nH]c5cccc(c45)CC3C(C)(C)N2C1=O` (centres undefined) the T/C (dose: 0.5 mg/kg/injection, schedule: Q01DX010 (ip), vehicle: saline) was 100 % of control, the T/C (dose: 1.0 mg/kg/injection, schedule: Q01DX010 (ip), vehicle: saline) was 100 % of control and the T/C (dose: 2.0 mg/kg/injection, schedule: Q01DX010 (ip), vehicle: saline) was 100 % of control. For the same compound, the T/C (dose: 4.0 mg/kg/injection, schedule: Q01DX010 (ip), vehicle: saline) was 110 % of control.
With `CCCCN(c1ccccc1)c1ncnc2c1cnn2C` the T/C [4] was 92 % of control and 100 % of control, the T/C [10] was 100 % of control and 108 % of control and the T/C [20] was 107 % of control. For the same compound, the T/C [11] was 91 % of control and 100 % of control, the T/C (dose: 400.0 mg/kg/injection, schedule: Q01DX009 (ip), vehicle: saline with Tween-80) was 96 % of control and 100 % of control and the T/C [12] was 95 % of control and 100 % of control.
For `CN(C)Cc1c[nH]c2nccnc12`, the T/C (dose: 3.12 mg/kg/injection, schedule: Q01DX009 (ip), vehicle: saline) was 95 % of control, the T/C (dose: 6.25 mg/kg/injection, schedule: Q01DX009 (ip), vehicle: saline) was 109 % of control and the T/C (dose: 12.5 mg/kg/injection, schedule: Q01DX009 (ip), vehicle: saline) was 101 % of control. The T/C (dose: 25.0 mg/kg/injection, schedule: Q01DX009 (ip), vehicle: saline) was 93 % of control, the T/C [1] was 99 % of control and the T/C (dose: 50.0 mg/kg/injection, schedule: Q01DX009 (ip), vehicle: saline) was 100 % of control. For the same compound, the T/C [2] was 100 % of control and 101 % of control, the T/C [21] was 100 % of control and the T/C [22] was 92 % of control and 100 % of control.
With `CC1(O)c2cccc3c2C2(O)c4c1cccc4C(C)(O)c1cccc(c12)C3(C)O` (centres undefined) the T/C [15] was 100 % of control, the T/C [13] was 105 % of control and the T/C [14] was 105 % of control.
For `C=CC12COC(=O)C(=C)C1C(O)C(C(=C)C(=O)OC)C(O)C2` (centres undefined), the T/C (dose: 0.5 mg/kg/injection, schedule: Q01DX010 (ip), vehicle: steriod suspending solution) was 100 % of control, the T/C (dose: 1.0 mg/kg/injection, schedule: Q01DX010 (ip), vehicle: steriod suspending solution) was 109 % of control and the T/C (dose: 2.0 mg/kg/injection, schedule: Q01DX010 (ip), vehicle: steriod suspending solution) was 100 % of control. The T/C (dose: 4.0 mg/kg/injection, schedule: Q01DX010 (ip), vehicle: steriod suspending solution) was 122 % of control and the T/C (dose: 10.0 mg/kg/injection, schedule: Q01DX010 (ip), vehicle: steriod suspending solution) was 109 % of control.
For `COc1ccc(/C=C2\CCC3C(CCCC34OCCO4)C2=O)cc1` (centres undefined), the T/C (dose: 45.0 mg/kg/injection, schedule: Q01DX009 (ip), vehicle: Klucel (hydroxypropylcellulose) (HPC)) was 104 % of control, the T/C [3] was 100 % of control and the T/C (dose: 65.0 mg/kg/injection, schedule: Q01DX009 (ip), vehicle: Klucel (hydroxypropylcellulose) (HPC)) was 95 % of control. For the same compound, the T/C [16] was 118 % of control, the T/C [4] was 104 % of control and the T/C [18] was 91 % of control. The T/C (dose: 150.0 mg/kg/injection, schedule: Q01DX009 (ip), vehicle: Klucel (hydroxypropylcellulose) (HPC)) was 90 % of control, the T/C [17] was 100 % of control and the T/C [20] was 96 % of control. For the same compound, the T/C (dose: 200.0 mg/kg/injection, schedule: Q04DX003 (ip), vehicle: other) was 108 % of control, the T/C (dose: 400.0 mg/kg/injection, schedule: Q01DX009 (ip), vehicle: Klucel (hydroxypropylcellulose) (HPC)) was 95 % of control and the T/C [19] was 95 % of control.
For `COc1ccc(/C=C(/C#N)C(N)=O)cc1Br`, the T/C (dose: 100.0 mg/kg/injection, schedule: Q01DX001 (ip), vehicle: Klucel (hydroxypropylcellulose) (HPC)) was 100 % of control, the T/C [21] was 100 % of control and the T/C [22] was 100 % of control. The T/C (dose: 200.0 mg/kg/injection, schedule: Q01DX001 (ip), vehicle: Klucel (hydroxypropylcellulose) (HPC)) was 113 % of control, the T/C (dose: 200.0 mg/kg/injection, schedule: Q01DX009 (ip), vehicle: saline) was 95 % of control and the T/C (dose: 200.0 mg/kg/injection, schedule: Q04DX003 (ip), vehicle: saline) was 120 % of control. For the same compound, the T/C (dose: 400.0 mg/kg/injection, schedule: Q01DX001 (ip), vehicle: Klucel (hydroxypropylcellulose) (HPC)) was 109 % of control, the T/C (dose: 400.0 mg/kg/injection, schedule: Q01DX009 (ip), vehicle: saline) was 90 % of control and the T/C (dose: 400.0 mg/kg/injection, schedule: Q04DX003 (ip), vehicle: saline) was 120 % of control.
